Assay results reported in US20230405005A1, “TREATMENT OF GAIT DYSFUNCTION IN NEURODEGENERATIVE DISEASE” (EIP Pharma, Inc., priority 2020, published 2023).

Assays:
hippocampal neurons = conditions: hippocampal cell culture; cited from earlier work
human subjects [1] = assay: Timed Up and Go (TUG) test, 16-week placebo-controlled clinical study; assay type: in vivo; conditions: 8 and 16 weeks
Protocol: FIG. 1A illustrates the Timed Up and Go (TUG) test, wherein the time it takes a subject to stand up from a chair, walk three meters, turn around and return to the chair is measured.
(§1) A double-blind placebo-controlled, 16-week, treatment with neflamapimod was conducted in parallel groups at 22 centers in the US and 2 centers in the Netherlands.
(§2) Inclusion criteria included Mild-to-moderate (MMSE 15-28) probable Dementia with Lewy Bodies by consensus criteria (McKeith et al, Neurology, 2017; 89:88-100), a positive reading of DaTscan™, and have to have been currently receiving cholinesterase inhibitor therapy (>3 months and stable dose >6 weeks). If DaTscan™ was negative, subjects could also be enrolled with history of polysomnography-confirmed REM sleep disorder (6 study participants so enrolled). The study was randomized 1:1 to 40 mg neflamapimod or matching-placebo capsules. Dosing regimen was based on weight: subjects weighing <80 kg received capsules twice-daily (BID) and those weighing ≥80 kg received capsules three-times-a-day (TID).
Secondary clinical endpoints included the following. (a) International Shopping List Test (ISLT); (b) Timed Up and Go Test (TUG), Ten item Neuropsychiatric Inventory (NPI-10); and (c) Clinical Dementia Rating scale Sum-of-Boxes (CDR-SB). […]

human subjects [2] = assay: Personal Care Domain of Clinical Dementia Rating Scale Sum of Boxes (CDR-SB); assay type: in vivo; conditions: neflamapimod vs placebo over 16 weeks; p=0.02 (MMRM), FIG. 4
Protocol: as §1, §2
Secondary clinical endpoints included the following. (a) International Shopping List Test (ISLT); (b) Timed Up and Go Test (TUG), Ten item Neuropsychiatric Inventory (NPI-10); and (c) Clinical Dementia Rating scale Sum-of-Boxes (CDR-SB). The TUG test is useful to measure risk of fall in patients with or at risk of suffering from Parkinson's disease (see e.g., Arch Phys Med Rehabil. 2013 July; 94(7): 1300-1305).

human subjects [3] = assay: EEG beta functional connectivity, corrected Amplitude Envelope Correlation (AECc); assay type: in vivo
Protocol: “40 mg” refers to combined neflamapimod patients, including 40 mg BID and 40 mg TID.
These regions, in particular the frontal cortex, receive cholinergic input, including projections from the nucleus basalis of Meynert. Dysfunction of the cholinergic system leads to impaired cortical functional connectivity, which is disruptive to the performance of complex motor functions such as gait. The ability of neflamapimod to improve functional connectivity, as measured by EEG in the experiments described herein, provides further support for the efficacy of neflamapimod to alleviate gait dysfunction.
Functional connectivity analysis, specifically corrected Amplitude Envelope Correlation (AECc), measures interregional communication or so-called ‘functional connectivity’ between different brain regions. In the functional connectivity analysis, a positive neflamapimod treatment effect on AECc in the beta band (13-30 Hz) was identified. Mean AECc beta was increased with neflamapimod TID versus all placebo (p=0.033) and versus placebo TID (p=0.01).

CKIδ = CKIδ (Homo sapiens, UniProt P48730); conditions: cited from earlier work
CKIδ, sequence (P48730 whole entry, species assumed): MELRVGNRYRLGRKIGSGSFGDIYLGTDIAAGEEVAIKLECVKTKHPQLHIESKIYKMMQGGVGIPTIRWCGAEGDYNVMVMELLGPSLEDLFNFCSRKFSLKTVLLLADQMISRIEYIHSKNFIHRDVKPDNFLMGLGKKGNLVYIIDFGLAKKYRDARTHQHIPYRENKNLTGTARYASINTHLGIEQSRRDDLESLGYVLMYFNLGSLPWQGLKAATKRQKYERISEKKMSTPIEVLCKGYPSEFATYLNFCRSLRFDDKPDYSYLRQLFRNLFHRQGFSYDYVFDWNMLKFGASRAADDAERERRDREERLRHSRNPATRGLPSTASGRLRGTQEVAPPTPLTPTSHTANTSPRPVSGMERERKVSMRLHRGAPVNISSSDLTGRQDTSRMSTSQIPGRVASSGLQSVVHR

CKIε = CKIε (Homo sapiens, UniProt P49674); conditions: cited from earlier work
CKIε, sequence (P49674 whole entry, species assumed): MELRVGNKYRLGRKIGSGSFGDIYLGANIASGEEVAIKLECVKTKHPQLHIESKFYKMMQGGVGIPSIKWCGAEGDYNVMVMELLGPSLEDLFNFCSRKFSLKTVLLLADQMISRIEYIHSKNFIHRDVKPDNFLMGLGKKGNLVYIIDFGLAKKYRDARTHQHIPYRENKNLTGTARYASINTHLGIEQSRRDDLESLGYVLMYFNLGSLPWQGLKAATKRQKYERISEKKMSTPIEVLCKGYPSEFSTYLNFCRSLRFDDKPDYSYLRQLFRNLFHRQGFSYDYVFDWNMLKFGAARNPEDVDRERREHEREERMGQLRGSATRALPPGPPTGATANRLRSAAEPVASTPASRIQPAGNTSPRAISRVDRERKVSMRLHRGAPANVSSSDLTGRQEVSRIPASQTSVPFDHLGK

SMILES | Effect against amyloid β-derived diffusible ligand (ADDL) induced synaptotoxicity (hippocampal neurons) | TUG test outcome (human subjects [1]; all neflamapimod (40 mg BID and 40 mg TID) vs all placebo, p=0.044 (MMRM), FIG. 2) | TUG test outcome (human subjects [1]; neflamapimod 40 mg TID vs placebo TID, p=0.024 (MMRM), FIG. 3) | Personal care domain of the CDR sum of boxes (human subjects [2]) | AECc in each of the other bands (human subjects [3]; EEG bands other than beta) | Mean AECc beta (13-30 Hz) functional connectivity (human subjects [3]; neflamapimod TID versus all placebo (p=0.033) and versus placebo TID (p=0.01)) | AECc beta by brain region (human subjects [3]; placebo TID versus neflamapimod TID, frontal p=0.009, temporal p=0.036, parietal p=0.036) | Inhibition of casein kinase isoform CKIδ (CKIδ) | Inhibition of casein kinase isoform CKIε (CKIε)
O=c1ncn2nc(Sc3ccc(F)cc3F)ccc2c1-c1c(Cl)cccc1Cl [neflamapimod, 5-(2,6-dichlorophenyl)-2-(2,4-difluorophenylthio)-6H-pyrimido[1,6-b]pyridazin-6-one] | positive effects | significantly improve outcome | significantly improve outcome | significant positive outcome | stable or slightly improved with no treatment group differences | increased | most prominent in the frontal region |  | 
COc1nccc(-c2c(-c3ccc(F)cc3)ncn2C2CCC(O)CC2)n1 (stereo not shown) [SB239063] | ineffective |  |  |  |  |  |  | inhibit | inhibit
